The values that follow come from patent US11840515B2, “Methods for preparing N-(4-fluorobenzyl)-N-(1-methylpiperidin-4-yl)-N′-(4-(2-methylpropyloxy)phenylmethyl)carbamide and its tartrate salt and polymorphic form c” (ACADIA Pharmaceuticals Inc., priority 2015, dated 2023).

One data set in a line: bioavailability. The note with it: free base is deliberated at physiological pH ranges. It counts as in vivo.
The next data set in a line: storage stability. It counts as physicochemical.
Data set [1] can be described thus: solubility in water / aqueous systems. It counts as physicochemical.
The nature of data set [2]: thermal stability of polymorphic form. It counts as physicochemical.

Counter-ions that a name gives are not always drawn.

Consider `CC(C)COc1ccc(CNC(=O)N(Cc2ccc(F)cc2)C2CCN(C)CC2)cc1` [Pimavanserin tartrate], for which the bioavailability result in “bioavailability” was “high bioavailability”. Besides, the storage stability result in the data set “storage stability” is recorded as “high storage stability”. In addition, in data set [1] (aqueous systems), the “solubility in aqueous systems” value is “very good”.

Regarding `CC(C)COc1ccc(CNC(=O)N(Cc2ccc(F)cc2)C2CCN(C)CC2)cc1` [pimavanserin, N-(4-fluorophenylmethyl)-N-(1-methylpiperidin-4-yl)-N′-(4-(2-methylpropyloxy)phenylmethyl)carbamide], in data set [1] (water), the solubility in water entry is listed as “low”.

Regarding `CC(C)COc1ccc(CNC(=O)N(Cc2ccc(F)cc2)C2CCN(C)CC2)cc1` [Polymorphic Form C], the “thermostability of the polymorphic form” value in data set [2] is given as “thermostabile”.
